# Data: patent US4028402A, “Biguanide salts” (Hoffmann-La Roche Inc., priority 1974, dated 1977)
# Structures can show the parent of a compound that is named as a salt. Where two headings read alike, the source gives them in different places.
# How the values were obtained:
# blood glucose = conditions: single oral dose, 4 h after administration
# Description: (§1) Four hours after administration of the test substances, the animals were decapitated. After deproteinization of the mixed blood with perchloric acid, glucose concentration was determined photometrically by the hexokinase method. Lactate concentration was determined photometrically with lactate dehydrogenase.
# blood lactate = conditions: single oral dose, 4 h after administration
# Description: as §1
# in vivo [1] = conditions: mouse, po, single daily oral administration for 10 days, 24 hours after the last administration
# in vivo [2] = conditions: rat, po, single daily oral administration for 10 days, 24 hours after the last administration
# Mouse = conditions: single daily oral administration for 10 days, 24 hours after the last administration
# Rat = conditions: single daily oral administration for 10 days, 24 hours after the last administration
# [3] = 100 μmol/kg, listed as Bis-dichloroacetate of n-butylbiguanide
# [4] = 300 μmol/kg, listed as Bis-dichloroacetate of n-butylbiguanide
# [5] = 1000 μmol/kg, listed as Bis-dichloroacetate of n-butylbiguanide
# [6] = 100 μmol/kg, listed as Hydrochloride of n-butylbiguanide
# [7] = 300 μmol/kg, listed as Hydrochloride of n-butylbiguanide
# [8] = 1000 μmol/kg, listed as Hydrochloride of n-butylbiguanide
Compound,"Blood glucose, % in controls (blood glucose; [3]) [% in controls]","Blood glucose, % in controls (blood glucose; [4]) [% in controls]","Blood glucose, % in controls (blood glucose; [5]) [% in controls]","Blood lactate, % in controls (blood lactate; [3]) [% in controls]","Blood lactate, % in controls (blood lactate; [4]) [% in controls]","Blood lactate, % in controls (blood lactate; [5]) [% in controls]",LD50 (in vivo [1]) [µmol/kg],LD50 (in vivo [2]) [µmol/kg],"Blood glucose, % in controls (blood glucose; [6]) [% in controls]","Blood glucose, % in controls (blood glucose; [7]) [% in controls]","Blood glucose, % in controls (blood glucose; [8]) [% in controls]","Blood lactate, % in controls (blood lactate; [6]) [% in controls]","Blood lactate, % in controls (blood lactate; [7]) [% in controls]","Blood lactate, % in controls (blood lactate; [8]) [% in controls]",LD50 (Mouse) [mmol/kg],LD50 (Rat) [mmol/kg]
"CCCCNC(=N)NC(=N)N [n-butylbiguanide bis-dichloroacetate, 1-butylbiguanide bis-(dichloroacetate)]",69,62,37,91,100,106,1130 ± 180,1200 ± 200,,,,,,,,
"CCCCNC(=N)NC(=N)N [n-butylbiguanide hydrochloride, 1-butylbiguanide.HCl]",,,,,,,,,76,68,35,123,114,254,1.37 ± 0.22,0.66 ± 0.10
